Test results as given in US20070275953A1 (priority 2003, published 2007).
Where two headings read alike, the source gives them in different places.

Legend:
[1] = molecular target: T1, HIV-1 reverse transcriptase (Human immunodeficiency virus type 1 group M subtype B, UniProt P04585); experiment: HIV-1 in vitro reverse transcriptase activity (fixed-time RNA dependent DNA polymerase assay); format: biochemical; conditions: residual RT activity, compound at 10 μM; RT activity without compound set at 100%
T1 construct: fixed-time assay for HIV-1 reverse transcriptase RNA dependent DNA polymerase activity; RT was purchased from Calbiochem; purchased Calbiochem CAL382129-500
Procedure: For the in vitro inhibition studies of the HIV-1 reverse transcriptase activity, stock solutions of the compounds of the present invention were prepared in dimethyl sulfoxide at a final concentration of 10 mM and kept at room temperature. Nevirapine was purchased from Boehringer Ingelheim. Efavirenz was received from the NIH AIDS Research and Reference Reagent Program.
In vitro inhibition studies used a fixed-time assay for HIV-1 reverse transcriptase RNA dependent DNA polymerase activity. RT was purchased from Calbiochem (ref CAL382129-500). One unit of RT corresponds to the amount of enzyme which incorporates one nanomole of [^3H]TTP in 10 minutes at 37° C.
Assays were performed in a final volume of 50 μl. […] Reaction mixtures were incubated at 37° C. for 10 min. The incorporation rate was determined by a standard trichloroacetic acid precipitation procedure (adapted from Current protocols in molecular biology. Eds Wiley, MGH Harvard medical school) and liquid scintillation counting using a Wallac scintillation counter.
The in vitro activity of the compounds, at a final concentration of 10 μM, on the reverse transcriptase (RT) activity of HIV-1 is derivable from the relative (%) reduction in RT activity. Hereby, the RT activity in the absence of any of the compounds is set at 100%.

[2] = tested on: HIV-1 with WT (wild type) RT in P4 cells; experiment: Anti-HIV assay on P4 cell line, WT RT; format: cell-based; conditions: P4 cell line, WT RT; for EC50: read-out: EC50 WT
Procedure: (§1) For the antiviral and the cytotoxicity assays, the drugs were diluted in complete DMEM medium. In these experiments, drugs were diluted in triplicate wells in a 96-well plate in six, 5 fold serial dilutions.
(§2) Two days later, co-cultivation with SupT1 cells (a human T-cell lymphoma cell line) was initiated to facilitate rapid production of progeny virions. Production of virus was measured by using the Innotest HIV Antigen mAb p24 kit (Innogenetics). At the peak of production cultures were harvested and filtered. The virus stocks were stored at −80° C. until used.
Anti-HIV activity and cytotoxicity of the compounds were tested on a P4 cell line. […] The P4 cells were cultured in complete DMEM medium supplemented with 10% fetal bovine serum (FBS), 0.5% of Penicillin/Streptomycin and G418 at 0.5 mg/ml. Exponentially growing cells were trypsinized, centrifuged and split twice weekly at 5.10^4 cells/ml.
The P4 cells are HIV-infectible Hela-CD4 cells that carry the bacterial lacZ gene under the control of the HIV-1 long terminal repeat (LTR). In this cell line, transcription of the LacZ gene is driven by the HIV-1 LTR. […] In other words, in this system, the expression level of the β-galactosidase gene is proportional to the viral replication.
Briefly, in the anti-HIV assay 100 Ål of P4 cells were plated in 96-well plate at a concentration of 0.4 10^5 cells/ml and incubated at 37° C., 5% CO2. After 48 h, the medium was removed and 100 Ål of the different drugs dilutions were added to the cells. Four hours after the addition of the drugs all cells were infected with equal amount of cell-free virus, corresponding to 100 ng of HIV p24 antigen. After 48 h of incubation at 37° C., 5% CO2, β-galactosidase activity was measured using chlorophenol red-β-D-galactopyranoside assays.
Each assay was performed a minimum of three times. The 50% effective concentration (Ec50) was calculated from each dose response curve using the CurveExpert 1.3 software.

[3] = Cytotoxicity (CC50), MTT assay on P4 cells; format: cell-based; conditions: human
Procedure: as §1
(§3) The 50% cytotoxic concentration (CCso) was determined using a protocol adapted from Pauwels et al. (1988. J. Virol. Methods 20(4):309-21). Briefly, flat bottom 96-well plates were filled with 50 μl of complete medium containing 5.10^3 P4 cells. 2 hours later 50 μl of drug solution were added to the cells. Drugs (dissolved in DMEM, see above) were diluted in six, 5-fold serial dilutions from stock solutions in triplicate wells of a 96-well plate. Cells and compounds were incubated at 37° C. in growth medium for 3 days. Cell viability was determined by MTT assays using the Roche Cell Proliferation KIT. The absorbance (λ=570 nm) was measured on a Benchmark™ Microplate Reader (Biorad) and compared with 12 cell control replicates (no drug added). Each assay was performed at least three times for a total of at least nine replicate wells. This method detects both cytostatic and cytolytic effects of drugs.

[4] = tested on: HIV-1 with WT (wild type) RT in MT4 cells; experiment: Anti-HIV assay on MT4 cell line, WT RT; format: cell-based
Procedure: as §2, with “Wurzburg Jurkat T cells (subclone JR) were transfected with 10 μg of the circularly permuted infectious molecular clone HIVNL4-3 (Adachi et al., 1986. J. Virol, 59 (2), p 284-291). Two” for “Two”
Anti-HIV activity of the compounds was tested on MT-4 cell line. The MT-4 cell line (Larder et al. 1989. Sciences, Vol. 243 p 1731) was received from the NIH AIDS Research and Reference Reagent Program. These cells were cultured in RPMI medium supplemented with 10% fetal bovine serum (FBS), and 1% Penicillin/Streptomycin. The cultures were split regularly to keep cells densities between 0.3 to 1.2 10^6 cells/ml.
The MT-4 cells rapidly die upon infection by HIV. In this system there is an inverse correlation between cells survival and the amount of viral replication.
Briefly, in the anti-HIV assay exponentially growing MT-4 cells were infected with HIV-1. 100 μl of infected MT-4 cells were seeded in 96-well plate at a concentration of 0.4 10^5 cells/ml, and 100 μl of the different drugs dilutions were added to the cells. After 4 days of incubation at 37° C., 5% CO2, cells survival was measured using MTS (3-(4-5-dimethylthiazol-2-yl)-5-(−(3-carboxymethoxyphenyl)-2-(4-sulfophenyl)-2H-tetrazolium) assays. This compound is reduced by viable cells in a colored soluble formazan salt.
The absorbance was measured on a Benchmark™ Microplate Reader (Biorad) (λ=490 nm) and compared with 12 cell control replicates (nor virus nor drug added) and 12 virus control wells (no drug added). Each assay was performed a minimum of three times. The 50% effective concentration (EC50) was calculated from each dose response curve using the CurveExpert 1.3 software.

[5] = tested on: HIV-1 with WT (wild type) RT in PBMC; experiment: Anti-HIV assay on PBMC, WT RT (p24); format: cell-based
Procedure: as §2, with “Wurzburg Jurkat T cells (subclone JR) were transfected with 10 μg of the circularly permuted infectious molecular clone HIVNL4-3 (Adachi et al., 1986. J. Virol, 59 (2), p 284-291). Two” for “Two”
Anti-HIV activity of the compounds was tested on Peripheral Blood Mononuclear Cells (PBMCs). These cells were separated from the blood of healthy donor using established procedures. PBMCs were cultured in RPMI medium supplemented with 10% fetal bovine serum (FBS), 1% Penicillin/Streptomycin and 20 U/ml of Interleukin-2.
PBMCs isolated from the blood of healthy donor contain CD4^+ T-lymphocytes which are one of the main targets of HIV in infected individuals.
Briefly, in the anti-HIV assay PBMCs, activated with phytohemagglutinin, were infected with HIV-1. 100 μl of infected PBMCs were seeded in 96-well plate at a concentration of 1 10^5 cells/ml, and 100 μl of the different drugs dilutions were added to the cells. After 4 days of incubation at 37° C., 5% CO2, cells cultures supernatants were collected. The amount of the viral capsid protein p24 in the supernatants was measured using the Innotest HIV Antigen mAb P24 kit (Innogenetics).

[6] = molecular target: T1, HIV-1 reverse transcriptase; experiment: RT inhibition as a function of preincubation time with the RT; format: biochemical
Text: Z122 seems to be an irreversible inhibitor of the reverse transcriptase.

[7] = molecular target: T1, HIV-1 reverse transcriptase; experiment: RT activity after separation of unbound compound on micro-spin desalting column; format: biochemical; conditions: after preincubation with RT
Procedure: After the preincubation, the unbound Z122 and the RT were separated using a micro-spin desalting column.

[8] = tested on: P4 cells; experiment: Cytotoxicity (CC50), MTT assay on P4 cells; format: cell-based; conditions: 3 days
Procedure: as §1, §3

CCc1c(C)[nH]c(=O)c(CSCCO)c1OC1CC(C)CC(C)C1 (stereo not shown) [Z121, 5-ethyl-6-methyl-4-[(3,5-dimethylcyclohexyl)oxy]-3-{[(2-hydroxyethyl)sulfanyl]methyl}pyridine-2(1H)-one]
Relative (%) RT activity in vitro (compound added at 10 μM) [1]: 1.4% | EC50 ([2]; Human immunodeficiency virus 1): < 1 nM | SI (selectivity index = CC50/EC50) [2]: >27000 | CC50 at 3 days [3]: 27 µM | EC50 ([4]; Human immunodeficiency virus 1): 14 nM | EC50 ([5]; Human immunodeficiency virus 1): < 1 nM | dependence of RT inhibition on time of (pre)incubation with the RT [6]: independent of the preincubation time | change in RT activity after separation of unbound compound (micro-spin desalting column) [7]: significant increase in the RT activity | melting point: 133 to 134 °C

CCc1c(C)[nH]c(=O)c(CSCCOC(=O)CCl)c1OC1CC(C)CC(C)C1 (stereo not shown) [Z122]
Relative (%) RT activity in vitro (compound added at 10 μM) [1]: 39.1% | EC50 [2]: 1 nM | CC50 [8]: 27.5 µM | EC50 [4]: < 1 nM | EC50 [5]: < 1 nM | dependence of RT inhibition on time of (pre)incubation with the RT [6]: increases with respect to the time of incubation | change in RT activity after separation of unbound compound (micro-spin desalting column) [7]: did not observe any increase in the RT activity
